According to ChEMBL document CHEMBL1126340, “Dual-acting thromboxane receptor antagonist/synthase inhibitors: heterocyclic variations” (Bioorg Med Chem Lett, 1992):

Experiments:
Thromboxane-A synthase = molecular target: T1, Thromboxane-A synthase (Homo sapiens, UniProt P24557); test: Inhibition of human Thromboxane A2 synthase
T1 sequence (P24557 whole entry): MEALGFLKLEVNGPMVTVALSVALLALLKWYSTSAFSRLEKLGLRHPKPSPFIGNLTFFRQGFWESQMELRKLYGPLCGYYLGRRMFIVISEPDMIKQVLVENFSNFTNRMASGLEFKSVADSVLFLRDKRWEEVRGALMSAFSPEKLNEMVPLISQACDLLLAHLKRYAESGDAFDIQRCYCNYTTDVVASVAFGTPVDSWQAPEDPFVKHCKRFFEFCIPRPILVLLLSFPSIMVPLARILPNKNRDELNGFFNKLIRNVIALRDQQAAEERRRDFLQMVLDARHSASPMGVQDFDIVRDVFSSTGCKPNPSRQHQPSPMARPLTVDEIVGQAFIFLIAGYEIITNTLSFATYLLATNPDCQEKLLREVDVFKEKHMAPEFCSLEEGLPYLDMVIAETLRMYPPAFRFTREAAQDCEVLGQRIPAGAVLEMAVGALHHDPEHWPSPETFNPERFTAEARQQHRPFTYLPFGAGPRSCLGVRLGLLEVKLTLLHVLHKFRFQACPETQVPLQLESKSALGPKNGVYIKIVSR

Thromboxane A2 receptor = molecular target: T2, Thromboxane A2 receptor (Homo sapiens, UniProt P21731); test: Antagonistic potency against Thromboxane A2 receptor expressed as inhibition of U 46619-induced platelet aggregation in human platelet rich plasma.; assay type: functional; details: read-out: pA2 (converted)
T2 sequence (P21731 whole entry): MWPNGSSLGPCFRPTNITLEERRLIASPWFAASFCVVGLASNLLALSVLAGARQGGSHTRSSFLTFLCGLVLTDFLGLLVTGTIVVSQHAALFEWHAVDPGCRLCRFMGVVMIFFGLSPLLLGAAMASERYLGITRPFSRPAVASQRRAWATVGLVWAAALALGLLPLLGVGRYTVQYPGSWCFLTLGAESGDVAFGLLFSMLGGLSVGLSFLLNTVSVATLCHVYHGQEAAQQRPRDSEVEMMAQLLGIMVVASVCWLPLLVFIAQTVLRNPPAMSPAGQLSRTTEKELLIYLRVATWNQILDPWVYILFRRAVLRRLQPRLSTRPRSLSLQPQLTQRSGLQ

Canis familiaris [1] = test: Compound was tested in vivo for inhibition of serum TXB2 formation in conscious dog at a oral dose of 1 mg/kg; assay type: functional; details: Canis lupus familiaris
Canis familiaris [2] = test: Compound was tested in vivo for blockade of U 46619-induced platelet aggregation in conscious dog at a oral dose of 1 mg/kg; Expressed as Concentration ratio; assay type: functional, Canis lupus familiaris

SMILES	IC50 (Thromboxane-A synthase) [nM]	Kb (Thromboxane A2 receptor) [nM]	inhibition in vivo at 1 mg/kg (Canis familiaris [1]) [%]	Activity (Canis familiaris [2])
CC1(C)OC[C@@H](C/C=C\CCC(=O)O)[C@@H](c2cccnc2)O1	120	–	–	–
CC1(C)OC[C@@H](C/C=C\CCC(=O)O)[C@@H](c2cnccn2)O1	> 10000	–	–	–
CC1(C)OC[C@@H](C/C=C\CCC(=O)O)[C@@H](c2cncnc2)O1	> 10000	–	–	–
CCCCCCn1cncc1[C@H]1OC(C)(C)OC[C@H]1C/C=C\CCC(=O)O	900	–	–	–
CC1(C)OC[C@@H](C/C=C\CCC(=O)O)[C@@H](c2ccnnc2)O1	7400	–	–	–
CC1(C)OC[C@@H](C/C=C\CCC(=O)O)[C@@H](c2cccs2)O1	4100	–	–	–
CC1(C)OC[C@@H](C/C=C\CCC(=O)O)[C@@H](c2cnco2)O1	> 10000	–	–	–
CCCCCCn1cncc1[C@H]1O[C@@H](C(C)(C)Oc2ccc(C)cc2[N+](=O)[O-])OC[C@H]1C/C=C\CCC(=O)O	490	200	–	–

Compounds with a lower IC50 (Thromboxane-A synthase), results first:

IC50 (Thromboxane-A synthase) [nM]	Kb (Thromboxane A2 receptor) [nM]	SMILES	inhibition in vivo at 1 mg/kg (Canis familiaris [1]) [%]	Activity (Canis familiaris [2])
80	–	CC1(C)OC[C@@H](C/C=C\CCC(=O)O)[C@@H](c2cncs2)O1	–	–
70	–	Cn1cncc1[C@H]1OC(C)(C)OC[C@H]1C/C=C\CCC(=O)O	–	–
50	3.98	Cc1ccc(OC(C)(C)[C@H]2OC[C@@H](C/C=C\CCC(=O)O)[C@@H](c3cncn3C)O2)c([N+](=O)[O-])c1	–	–
19	3.98	Cc1ccc(OC(C)(C)[C@H]2OC[C@@H](C/C=C\CCC(=O)O)[C@@H](c3cccnc3)O2)c([N+](=O)[O-])c1	–	–
18	5.01	Cc1ccc(OC(C)(C)[C@H]2OC[C@@H](C/C=C\CCC(=O)O)[C@@H](c3cncs3)O2)c([N+](=O)[O-])c1	60	>50
